Results published in patent publication US7955815B2, “Two-photon fluorescent probes for acidic vesicles in live cells and tissue and method of imaging acidic vesicles in live cells and tissue using the same” (Korea University Industrial & Academic Collaboration …, priority 2007, dated 2011).
Converted amounts (≈) assume the structure as drawn.

What was measured:
[1] = test system: acidic vesicles in macrophages; assay: Two-photon microscopy images of labeled macrophages, co-localized with LysoTracker Red OPM image; assay type: cell-based; settings: TPM
Description: TPM images of individual macrophages labeled with the probe AH2 of Example 2 were obtained (FIG. 3).
In contrast, the TPM images of the AH2-labeled macrophages emitted TPEF only at 500-620 nm (3b), and not at 360-460 nm (3a), which was attributed to the membrane-bound probe.
To unambiguously determine whether the intense red spots (3b) are indeed the acidic vesicles, the macrophages were stained With LYSOTRACKER™ Red (LTR), a well known one-photon fluorescent probe, and a one-photon micrography (OPM) image thereof was obtained (3c). The TPM image was co-localized with the OPM image (3d).
Acidic vesicles were imaged in the same manner as in Experimental Example 3-(1), except that the probe AH1 of Example 1 was used instead of the probe AH2 of Example 2.
Acidic vesicles were imaged in the same manner as in Experimental Example 3-(1), except that the probe AL1 of Example 3 was used instead of the probe AH2 of Example 2.

[2] = Two-photon action cross section by fs fluorescence measurement, fluorescein as reference; assay type: physicochemical; settings: 780 nm
Description: The two-photon cross section (δ) was determined by using femto second (fs) fluorescence measurement technique.
Specifically, each of the probes AH1, AH2, AL1 and LYSOTRACKER™ Red (DND-99) was dissolved in a universal buffer (pH=3.2) at a concentration of 5.0×10^−6 M and then the two-photon induced fluorescence intensity was measured at 740-940 nm by using fluorescein (8.0×10^−6 M, pH=11) as the reference, whose two-photon property has been well characterized.
The intensities of the two-photon induced fluorescence spectra of the reference and the sample probe were measured, and the two-photon cross section of the sample probe was calculated according to Equation 2: […]
wherein the subscripts s and r represent the sample probe and the reference, respectively, δ represents the two-photon cross section of the sample probe, and S represents the intensity of the signal collected by a detector, Φ represents the fluorescence quantum yield, φ represents the overall fluorescence collection efficiency of the experimental apparatus, c represents the number density of the molecules in solution, and δr represents the two-photon cross section of the reference.
The two-photon action cross section of the sample probe was calculated by multiplying the two-photon cross section by the quantum yield.

[3] = Fluorescence as a function of pH in universal buffer; pKa value analysis; assay type: physicochemical; settings: for fluorescence intensity change with pH: pH gradually decreased; for pKa: universal buffer solution, from fluorescence intensity as a function of pH
Description: Each of the probes AH1 and AH2 was dissolved in a universal buffer solution (0.1 M citric acid, 0.1 M KH2PO4, 0.1 M Na2B4O7, 0.1 M Tris, 0.1 M KCl 10 mM).
The fluorescence intensities of the probes AH1 and AH2 were measured, and titration curves thereof were plotted (FIG. 9). In FIG. 9, Y-axis represents the fluorescence intensity enhancement factor [(F−Fo)/Fo] (F is the fluorescence intensity and Fo is the minimum fluorescence intensity).
The pKa values were estimated from the fluorescence intensity measured as a function of the pH by using the relationship 1: log [(Imax−I)/(I−Imin)]=pH−pKa (1)
wherein I represents the fluorescence intensity, and Imax and Imin represent the maximum and minimum fluorescence intensity, respectively.

[4] = Water solubility from fluorescence intensity vs probe concentration; assay type: physicochemical; settings: kinetic from dmso stock, H2O, 0.2% DMSO, read-out: solubility (maximum concentration in the linear region)
Description: Each of the probes AH1, AH2 and AL1 prepared in Examples 1-3 was dissolved in DMSO to prepare a stock solution (1.0×10^−3 M). The solution was diluted to […] and added to a cuvette containing 3.0 mL of H2O by using a micro syringe. In all cases, the concentration of DMSO in H2O was maintained to be 0.2%. The fluorescence intensity of the probe was measured as a function of the probe concentration.
Referring to FIG. 1, the fluorescence intensities of the probes increased in all wavelength bands with increasing probe concentration.
The plots (1b, 1d and 1f) have a profile in which the fluorescence intensity increases with increasing probe concentration.
Referring to the profile, the fluorescence intensity increases linearly until the dye concentration reaches a predetermined level. […] The maximum concentration in the linear region was taken as the solubility. The solubilities of the probes AH1, AH2, and AL1 were 5.0, 9.0, and 5.0 μM, respectively.

[5] = test system: acidic vesicles in hippocampal slices; assay: TPEF imaging of rat hippocampal slices
Description: Slices were prepared from the hippocampi of a 2-day-old rat. The hippocampal slices were cut into a thickness of 400 μm. The slices were incubated with the probes AH2 and AL1 (10-20 μM).
The slices were then washed and transferred to glass-bottomed dishes. The TPEF images of the slices were obtained.
40 TPM images were accumulated along the z-direction at the depth of ˜100-250 μm with magnification 10× (6b).

two-photon action cross section relative to LysoTracker Red [2] | fluorescence intensity change with pH [3] | pKa [3] | solubility [4] | two-photon action cross section (Φδ) ([2]; universal buffer pH 3.2, 5.0×10^−6 M) | Structure (SMILES) | imaging of acidic vesicles in macrophages (TPEF at 500-620 nm, merged with LTR image) [1] | depth at which TPEF images were obtained ([5]; 400 μm hippocampal slices of 2-day-old rat, probe 10-20 μM) | imaging of transportation of acidic vesicles ([5]; acute rat hippocampal slice, CA3 region, depth ~120 μm, 10 μM)
9 fold | increased dramatically around pH 4-5 | 4.42 ± 0.03 | 5 µM (≈ 1.74 µg/mL) | – | CC(=O)c1ccc2cc(N(C)CC(=O)Nc3ccc(N)cc3)ccc2c1 [AH1] | clearly capable of imaging the acidic vesicles | – | –
9 fold | increased dramatically around pH 4-5 | 4.18 ± 0.01 | 9 µM (≈ 3.4 µg/mL) | – | COc1cc(NC(=O)CN(C)c2ccc3cc(C(C)=O)ccc3c2)ccc1N [AH2] | clearly capable of imaging the acidic vesicles | 250 μm | –
– | – | – | – | ~10 GM | CN(C)CCNC(=O)CCc1ccc2n1[B-](F)(F)[N+]1=C(c3ccc[nH]3)C=CC1=C2 [LYSOTRACKER™ Red (LTR), reference compound] | – | – | –

Structure (SMILES) | two-photon action cross section relative to LysoTracker Red [2] | fluorescence intensity change with pH [3] | pKa [3] | solubility [4] | two-photon action cross section (Φδ) ([2]; universal buffer pH 3.2, 5.0×10^−6 M) | imaging of acidic vesicles in macrophages (TPEF at 500-620 nm, merged with LTR image) [1] | depth at which TPEF images were obtained ([5]; 400 μm hippocampal slices of 2-day-old rat, probe 10-20 μM) | imaging of transportation of acidic vesicles ([5]; acute rat hippocampal slice, CA3 region, depth ~120 μm, 10 μM)
CC(=O)c1ccc2cc(N(C)CC(=O)NCCN(C)C)ccc2c1 [AL1] | – | maintained at a substantially constant level despite changes in acidity | – | 5 µM (≈ 1.64 µg/mL) | – | clearly capable of imaging the acidic vesicles | – | can visualize the transportation of acidic vesicles in the CA3 region for a long period of time
